Here are results for seven compounds from patent US20040023984A1, “Compounds for the treatment of alzheimer's disease” (priority 1987, published 2004).

Broadly, the pIC50 is −log10 of the IC50, conventionally taken in molar units. As usually defined, the % Inhibition is the drop in the measured response relative to a control, in per cent. The low end stands for little suppression, the high end for strong suppression. The term inhibition denotes how much of the control response was suppressed.

pIC50: −log10 of the molar value. Values joined by “and” are separate entries in the source; they are usually repeats but may differ in a detail not shown here. Equal values may be shown once. Read-outs that look alike come from different tables or passages of the source.

For data set [1], the system named is cholinesterase. The note with it: relative to galanthamine; cited from earlier work.
For data set [2] the following is noted: 3 mg/kg; cited from earlier work.
Data set [3] concerns respiration and heart activity. The conditions noted are these: relative to galanthamine; cited from earlier work.
Data set [4] deals with T1, acetylcholinesterase (Homo sapiens, UniProt P22303). In words: biochemical.
T1 sequence (P22303 32-614, species assumed): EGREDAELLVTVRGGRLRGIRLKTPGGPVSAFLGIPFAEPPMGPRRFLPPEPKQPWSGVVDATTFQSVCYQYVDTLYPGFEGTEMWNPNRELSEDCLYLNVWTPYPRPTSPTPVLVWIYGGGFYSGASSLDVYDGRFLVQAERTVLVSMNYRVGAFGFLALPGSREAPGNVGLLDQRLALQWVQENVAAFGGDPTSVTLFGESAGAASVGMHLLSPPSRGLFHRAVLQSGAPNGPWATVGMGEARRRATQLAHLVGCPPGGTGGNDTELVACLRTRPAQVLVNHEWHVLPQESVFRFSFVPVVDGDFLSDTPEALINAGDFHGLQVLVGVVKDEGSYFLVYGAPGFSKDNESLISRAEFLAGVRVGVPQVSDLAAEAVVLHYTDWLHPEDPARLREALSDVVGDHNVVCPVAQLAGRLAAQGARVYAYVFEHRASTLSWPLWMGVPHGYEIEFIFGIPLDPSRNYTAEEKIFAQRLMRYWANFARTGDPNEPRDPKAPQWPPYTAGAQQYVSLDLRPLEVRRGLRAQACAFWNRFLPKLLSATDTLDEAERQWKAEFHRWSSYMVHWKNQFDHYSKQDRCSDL
The test system of data set [5] is mice. The data set can be described thus: Profile of Observable Effects (POE), peripheral cholinergic effects. The note with it: subcutaneous.
Protocol: A number of compounds were also evaluated in a standardized Profile of Observable Effects (POE) which involves administering drug to animal in increasing amounts and observing this for up to two hours to see whether peripheral cholinergic effects such as tremor, lacrimation, salivation, pilo erection, defection or red eye occur.
The next data set deals with normal mice. The data set can be described thus: Passive avoidance shuttle box test using normal mice. Format: in vivo. Here is the method:
(§1) Galanthamine n-butyl carbamate was tested in the nucleus basalis model for galanthamine discussed in the Hartounian et al paper noted above. In the test, mice were given the drug three and ½ hours before two learning trials in a shuttle box. They are placed in the lighted compartment and receive an electric footshock when they cross into the preferred side, the dark. The next day, they are again placed in the lighted compartment and the time to enter the dark is noted. The latency to enter the dark compartment is the basis for this figure. […] Below 50 mg/kg no side effects were noted.
In a similar test using normal mice, the mice remained in the light (less preferred) side of the shuttle box for over six minutes at the best dose (0.1 mg/kg) as compared to a best dose result of about 90 seconds for the nucleas basalis-lesioned animals.

The test system of data set [6] is nucleas basalis-lesioned animals. The data set can be described thus: Nucleus basalis model, passive avoidance in shuttle box. Format: in vivo, mice.
From the text: The following test provides a good animal model for Alzheimer's disease in humans: A selective lesion is placed in a subcortical nucleus (nucleus basalis of Meynert) with a resultant cortical cholinergic deficiency, similar in magnitude to that seen in early to moderate stage Alzheimer's disease. Numerous behavioral deficits, including the inability to learn and retain new information, characterizes this lesion. Drugs that can normalize these abnormalities would have a reasonable expectation of efficacy in Alzheimer's disease. Haroutunian, V, Kanof P, Davis, K L: Pharmacological alleviations of cholinergic-lesion-induced memory defects in rats. Life Sciences, 37:945-952 (1985).
as §1

Data set [7] has as its target T1, acetylcholinesterase. The data set can be described thus: Acetylcholinesterase Inhibition Assay (other cholinesterase activity tests, may be less reliable). Format: biochemical. The conditions noted are these: results may be less reliable.
The target of data set [8] is T1, acetylcholinesterase. The data set can be described thus: Inhibition of acetylcholinesterase, procedure of Ellman (acetylthiocholine substrate, photometric). Format: biochemical. Here is the method: The anticholinesterase activity of the compounds prepared in the above examples was assayed by an assay for inhibition of acetylcholinesterase following the procedure of G. Ellman, […], 7:88-95 (1961) Acetylthiocholine serves as substrate since it acts like acetylcholine. Acetylcholinesterase cleaves it to thiocholine and acetate which react with dithiobisnitrobenzoate to form a yellow color which is measured photometrically.
This assay was carried out at dilution of 10^−5 molar
The compounds were tested in the assay described after Example 5 but at different concentrations. The results obtained were as follows:
Further compounds were prepared by methods analogous to those described above and were tested in a cholinesterase assay as described above.
For orientation: In Ellman's method for cholinesterases, released thiocholine reacts with DTNB.

For data set [9], the system named is mice. In words: Cholinergic side effects in mice at high doses. Format: in vivo. Here is the method:
as §1

A further data set relates to EEG—recorded activity. The conditions noted are these: relative to galanthamine; cited from earlier work.
The test system of data set [10] is scopolamine induced memory deficit. The data set can be described thus: Scopolamine dementia dark avoidance test (passive avoidance). Type of data set: in vivo, male CFW mice. The note with it: for # > CO/n / % > CO / Mean Latency: Table 2, cut-off 41 seconds. On the procedure:
Furnished data on the effects of these compound on cholinesterase activity were used to determine doses for testing. […] The two other compounds were tested at 1,3 and 10 mg/kg sc and did antagonize the scopolamine induced deficit.
Training and testing of passive avoidance were conducted in a two-compartment (light/dark) test cage. On the training day, mice were individually placed in the light half of the cage and after entering the dark compartment, were administered a 3 sec 0.4 mA footshock. They were then removed from the test chamber and returned to their home cages. Twenty-four hours later, the animals were again placed in the lighted half of the test cage and the latency to enter the dark compartment was measured.
All animals in each group of 15 naive male CFW mice were injected twice subcutaneously. Thirty minutes prior to training, animals were administered 3 mg/kg scopolamine HBr or its 0.9% NaCl vehicle. Five minutes prior to training, independent groups were administered one of three doses of the test compounds or the distilled water vehicle. One group in each experiment received vehicle twice, another group received scopolamine and the dH2O vehicle; the remaining groups received scopolamine and a test compound.
A cutoff value (CO), defined as the second-longest latency in the scopolamine/vehicle treated group, was used to determine whether a compound was active. If 20% or more of the animals in a treatment group had latencies greater than the CO value, the compound was considered active at that dose.
The three compounds were tested in two separate experiments; the results are presented below in Tables 1 and 2. Doses considered active are marked with an asterisk (*).

In data set [11] the test system is cholinesterase. The conditions noted are these: Irwin and Smith, Arch. Int. Pharmacodyn. 127:314-330; cited from earlier work.

Consider `COc1ccc2c3c1OC1CC(=O)C=C[C@@]31CCN(C)C2` (stereo partly shown) [Narwedine, narwedine], for which the “anti-cholinesterase activity as % of that of galanthamine” value in the data set on cholinesterase [1] is on record as “less than 1%”. Also, in [2], the anticurare activity result is on record as “weak”. The “cholinergic effects on respiration and heart activity, lower than galanthamine” value in data set [3] is on record as 50-80%.
For the compound `CNC(=O)Oc1ccc2c3c1OC1CC(O)C=CC31CCN(C)C2` (stereo not shown) [O-demethyl-galanthamine-13-methyl carbamate], the pIC50 was 8.70 against acetylcholinesterase [4] (IC50, acetyl cholinesterase inhibition, S 0.3 mM) and 8.70 against acetylcholinesterase [4] (IC50, acetyl cholinesterase inhibition, S 5 mM). The results for the “POE, mice showing peripheral cholinergic effects” value with mice [5] (0.31 mg/kg), in the data set with mice [5] (0.63 mg/kg) and in the data set with mice [5] (1 mg/kg) were “not noted in any of four mice”, “noticeable in one mouse out of four” and “in all four mice”, respectively.
Turning to `COC1C=C[C@@]23CCN(C)Cc4ccc(O)c(c42)OC3C1` (stereo partly shown) [childanthine], the negative logarithm of the IC50 (pIC50) at acetylcholinesterase [4] (read-out: IC50, acetyl cholinesterase inhibition) was 6.51 and 7.10.
For `COc1ccc2c3c1O[C@H]1C[C@H](O)C=C[C@@]31CCN(C)C2` [epigalanthamine], in the data set on cholinesterase [1], the “anti-cholinesterase activity as % of that of galanthamine” value was 10%.
Take `CCCCNC(=O)O[C@@H]1C=CC23CCN(C)Cc4ccc(OC)c(c42)O[C@@H]3C1` (stereo partly shown) [galanthamine n-butyl carbamate]: the “best dose in passive avoidance test” value in the data set with normal mice came to 0.1 mg/kg; in data set [6] (nucleus basalis model, mice, drug given three and ½ hours before learning trials), 0.5 mg/kg. The “time mice remained in the light side of the shuttle box” value with normal mice (best dose (0.1 mg/kg)) is given as “over six”. Moreover, in data set [6] (nucleas basalis-lesioned animals, best dose), the “best dose result, latency to enter the dark compartment” value is “about 90 seconds”. For the same compound, the “passive avoidance result compared with galanthamine” value in data set [6] (nucleus basalis model, mice) was “comparable with those obtained with galanthamine”. Besides, the “% Inhibition at 10^−6” value on acetylcholinesterase [7] (10^−6) came out at 37%. Also, the “% Inhibition at 10^−7” value at acetylcholinesterase [7] (10^−7) was 9%. The “% Inhibition at −10^−5” value at acetylcholinesterase [7] (−10^−5) turned out to be 44%. Also, the “inhibition of acetylcholinesterase at concentration 10^−5” value against acetylcholinesterase [8] (10^−5 molar) is 75. Further, the “dose below which no side effects were noted” value in the data set on mice [9] (mice) is “Below 50 mg/kg”. In addition, in the data set on mice [9] (two mice given 100 mg/kg), the “side effects and lethality” value is given as “showed cholinergic side effects but neither died”.
`COc1ccc2c3c1OC1CC(O)CC[C@@]31CCN(C)C2` (stereo partly shown) [lycoramine]: the “concentration required to stimulate EEG-recorded activity, times that required for galanthamine” value with EEG—recorded activity is given as “about five”. In addition, the inhibition at 10 µM at acetylcholinesterase [8] (10^−5 M, further compounds, read-out: cholinesterase inhibition at 10^−5 M) was 30%. In addition, the “antagonism of scopolamine induced memory deficit” value in [10] (10 mg/kg sc) is “active”. The “# > CO/n” value in data set [10] (scopolamine + 1 mg/kg sc) is 1/15; in [10] (scopolamine + 3 mg/kg sc) it was 0/15; in data set [10] (scopolamine + 10 mg/kg sc) it was 4/15. Further, the “% > CO” value in data set [10] (scopolamine + 1 mg/kg sc) was 7%; in [10] (scopolamine + 3 mg/kg sc, * = dose considered active) it was 0%; in data set [10] (scopolamine + 10 mg/kg sc, * = dose considered active) it was 27* %. Further, the “Mean Latency” value is 26 s in data set [10] (scopolamine + 1 mg/kg sc), 19 s in [10] (scopolamine + 3 mg/kg sc) and 48 s in data set [10] (scopolamine + 10 mg/kg sc).
Turning to deoxydemethyl lycoramine methiodide, in the data set on cholinesterase [11], the cholinesterase activity entry is listed as “good activity”.
